The values below come from PubChem BioAssay (NCI).

Experiment in all cases: growth of human tumour cells (NCI), 48 h
The subject of experiment [1] is CCRF-CEM leukemia.
Experiment [2] relates to HOP-92 NSCLC.
The test system of experiment [3] is KM12 colon.
The test system of experiment [4] is MOLT-4 leukemia.
Experiment [5] deals with NCI-H226 lung.
Experiment [6] has as its system OVCAR-4 ovarian.
Experiment [7] relates to OVCAR-5 ovarian.
The test system of experiment [8] is SK-MEL-2 melanoma.
Experiment [9] deals with SNB-19 CNS.
For experiment [10], the system named is TK-10 renal.

Several values for one entry are separate records, joined by “and”; a condition that tells them apart may be missing. Equal values may be shown once.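 Tested at 5 concentrations; 48 h exposure; 96-well plates; endpoints linearly interpolated, else capped at highest concentration. GI50: concentration for 50% inhibition of growth. At the TGI there is no net growth.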 Numbered stars: 1 amine (or outer) side, 2 acyl side, 3 side chain; on linkers, the order of the positions; unused ones are H or OH. Bridge positions count the residues as written; N and C are the ends. Square brackets hold non-standard residues; d marks the D form. Peptide text beside a SMILES is read from it. I, II: the chains in the order shown. Actinocin(1to9) = Cc1c2oc3c(C)ccc(C(=O)[*:2])c3nc-2c(C(=O)[*:1])c(N)c1=O; NMeY = CN[CH](Cc1ccc(O)cc1)C(=O)O; Sar = CNCC(=O)O

Consider `O=C(O)c1ccc(SSc2ccc(C(=O)O)cn2)nc1`, for which the TGI in experiment [1], in experiment [2], in experiment [3], in experiment [4], in experiment [5] and in [6] was more than 100 µM in each case. For the same compound, the TGI in experiment [7], in [8], in [9] and in [10] was more than 100 µM in each case.

Consider `CC(C)(C)OC(=O)Nc1ccc2c(c1)C(NC(=O)Nc1cccc(C#N)c1)CC(C)(C)O2` (stereo unspecified), for which the GI50 in [1] was 3.8 µM; in experiment [2] it was 4.06 µM; in experiment [3], 3.39 µM; in experiment [4], 1.96 µM; in [5], 2.29 µM; in experiment [6] it was 1.18 µM. The GI50 in experiment [7] is 28 µM; in [8], 6.4 µM; in experiment [9], 3.54 µM; in experiment [10], 6.14 µM. For the same compound, the TGI is more than 100 µM in experiment [1]; more than 28.3 µM in experiment [2]; more than 100 µM in [3]; more than 64.6 µM in experiment [4]; 42.8 µM in experiment [5]; more than 100 µM in experiment [6]. Further, the TGI in experiment [7] was more than 100 µM; in [8], 31.4 µM; in experiment [9], more than 100 µM; in experiment [10], more than 100 µM.

For the compound `CC1=NOC(=O)/C1=C/c1ccc2c(c1)OCO2`, the TGI in experiment [1] was 67.5 µM; in experiment [2], more than 100 µM; in experiment [3], 36.6 µM; in [5], 49.8 µM; in experiment [6], more than 100 µM; in experiment [7], more than 100 µM. Moreover, the TGI in experiment [8] is 39 µM; in [9], 95 µM; in experiment [10], more than 100 µM.

Turning to `CNC(=O)CN(CC(=O)O)C(=O)NC`, the TGI in experiment [1], in [2], in [3], in experiment [4], in [6] and in experiment [7] was more than 100 µM each time. Moreover, the TGI in experiment [8], in experiment [9] and in experiment [10] was more than 100 µM in each case.

For `C1=CCCC=CCC1.C[PH+](C)C.C[PH+](C)C.C[PH+](C)C.[Cl-].[Ir]`, the GI50 in experiment [1] is 19.4 µM; in [2], 28.6 µM; in experiment [3], 43.6 µM; in [4] it was 30.2 µM; in [6], 67.8 µM; in experiment [7] it was more than 100 µM. Moreover, the GI50 in experiment [8] was 23.4 µM; in [10], more than 100 µM. In addition, the TGI in experiment [1] is 71.7 µM; in experiment [2], 98.8 µM; in experiment [3], more than 100 µM; in experiment [4], more than 100 µM; in experiment [6], more than 100 µM; in [7], more than 100 µM. The TGI in [8] is 60.4 µM; in experiment [10], more than 100 µM.

Consider `CC(C)(C)OC(=O)N[C@@H](Cc1ccccc1)C(=O)N(Cc1ccccc1)C1(C(=O)NCc2ccccc2)CCN(Cc2ccccc2)CC1`, for which the GI50 is 3.35 µM in experiment [1]; 1.45 µM in [2]; 4.12 µM in experiment [3]; 1.83 µM in experiment [4]; 3.2 µM in experiment [5]; 3.23 µM in experiment [6]. The GI50 in [9] was 5.27 µM; in [10], 3.17 µM. The TGI was more than 100 µM in experiment [1]; 5.33 µM in experiment [2]; more than 100 µM in experiment [3]; 6.33 µM in experiment [4]; more than 100 µM in [5]; more than 100 µM in [6]. The TGI in experiment [9] is more than 100 µM; in experiment [10], 70.3 µM.

For `N#Cc1cccc(C2C3=C(COC3=O)N(CCO)c3cc4c(cc32)OCO4)c1` (stereo unspecified), the GI50 in experiment [1] was 1.53 µM; in experiment [2] it was 2.66 µM; in [3], 1.74 µM; in experiment [4], 3.64 µM; in experiment [5], more than 50 µM; in [6], 10.9 µM. Further, the GI50 in [7] is 7.92 µM; in [9] it was 2.69 µM; in experiment [10], 15.4 µM. The TGI in [1], in experiment [2], in experiment [3], in experiment [4], in experiment [5] and in experiment [6] was more than 50 µM throughout. The TGI in experiment [7], in [9] and in experiment [10] was more than 50 µM in each case.

Consider `COc1ccc(CC2C(=O)OC(C)C(NC(=O)c3c4nc5c(C(=O)NC6C(=O)NC(C(C)C)C(=O)N7CCCC7C(=O)N(C)CC(=O)N(C)C(Cc7ccc(OC)cc7)C(=O)OC6C)ccc(C)c5oc-4c(C)c(=O)c3N)C(=O)NC(C(C)C)C(=O)N3CCCC3C(=O)N(C)CC(=O)N2C)cc1` (stereo unspecified) (I: TVP[Sar][NMeY](Me) / II: TVP[Sar][NMeY](Me); ester I:1-I:C, II:1-II:C; linker I:N-II:N via Actinocin(1to9); configuration not given here), for which the GI50 in [1] is < 0.01 µM and 0.00103 µM; in experiment [2] it was < 0.01 µM and 0.035 µM; in experiment [4], 0.00152 µM; in experiment [7], < 0.01 µM and 0.0841 µM; in experiment [8] it was < 0.01 µM and 0.0228 µM. For the same compound, the TGI in experiment [1] is < 0.01 µM and 0.0625 µM; in experiment [5], more than 0.213 µM; in [6], less than 0.01 µM; in experiment [7], more than 0.651 µM; in experiment [9], 1.55 µM and > 0.804 µM; in experiment [10], 2.69 µM and 0.969 µM.

On to `CC(=O)[O-].N.N.N.N.[Co+3].[O-][Cl+3]([O-])([O-])[O-].[OH3+]`, for which the GI50 in experiment [1], in [2], in [3], in [4], in [6] and in experiment [7] was more than 100 µM in each case. For the same compound, the GI50 in experiment [8], in experiment [9] and in experiment [10] was more than 100 µM throughout. Moreover, the TGI in [1], in experiment [2], in experiment [3], in experiment [4], in [6] and in [7] was more than 100 µM each time. For the same compound, the TGI in experiment [8], in experiment [9] and in experiment [10] was more than 100 µM throughout.

As for `NC(=O)c1ccc(Cl)c([N+](=O)[O-])c1`, the TGI in [1], in experiment [2], in experiment [3], in experiment [4], in [5] and in experiment [6] was more than 100 µM throughout. The TGI in [7], in [9] and in experiment [10] was more than 100 µM throughout.
